Assays:
[1] = tested on: 5-HT2 receptors; conditions: cited from earlier work; for 5-HT2 receptor subtype selectivity: 5-HT2A, 5-HT2B, 5-HT2C
[2] = Stabilization of 1-(2-aminopropyl)-indazol-6-ol by classical antioxidants; type: physicochemical; conditions: aqueous solution

Row | Compound | 5-HT2 receptor subtype selectivity [1] | 5-HT2 agonist activity [1] | Stabilization by classical antioxidants (sodium metabisulfite, propyl gallate, ascorbic acid) [2]
1 | CC(N)Cc1c[nH]c2ccc(O)cc12 (stereo not drawn) [α-methyl-serotonin] | modest receptor subtype selectivity: 5-HT2B>5-HT2C>5-HT2A | potent 5-HT2 agonist | 
2 | COc1ccc2[nH]cc(CC(C)N)c2c1 (stereo not drawn) [5-methoxy-α-methyltryptamine] | profile similar to that of α-methyl-serotonin |  | 
3 | COc1cc(C[C@@H](C)N)c(OC)cc1I [(R)-DOI, (R)4-iodo-2,5 dimethoxy-α-methyl-benzeneethanamine] | not selective amongst the 5-HT2 receptor subtypes |  | 
4 | CC(N)Cn1ncc2ccc(O)cc21 (centres unmarked) [AL-34662, 1-(2-aminopropyl)-indazol-6-ol] |  |  | did not stabilize

Reference: patent US20060073172A1, “Stabilized ophthalmic solution for the treatment of glaucoma and lowering intraocular pressure” (priority 2004, published 2006)
